# Test results: patent publication US4668686A, “Imidazoquinoline antithrombrogenic cardiotonic agents” (Bristol-Myers Company, priority 1986, dated 1987)
# Read-outs that look alike come from different tables or passages of the source.
# Legend:
# [1] = system: collagen-induced platelet aggregation; experiment: In vitro inhibition of collagen-induced platelet aggregation (aggregometer, rabbit PRP); assay type: cell-based; settings: Oryctolagus cuniculus, read-out: Platelet Inhibition In Vitro - Rabbit PRP EC50 vs. collagen
# Protocol: (§1) The aggregometer method of Born (1), as modified by Mustard, et al. (2) was used to assess the in vitro activity of the various compounds as to inhibition of adenosine diphosphate (ADP) and collagen-induced platelet aggregation. Platelet rich plasma (PRP) was separated by centrifugation from citrated (3.8 percent) rabbit blood. […] The various compounds tested were dissolved in dimethylsulfoxide (DMSO) so that 5 mcl added to the platelet rich plasma would yield the desired test concentration. Vehicle control trials were done and compared with aggregation induced in platelet rich plasma containing various concentrations of the test compounds. Dose response curves were obtained and Effective Concentration (EC50) values calculated.
# [2] = system: right ventricular contractile force (RVCF); experiment: In vivo inotropic activity (right ventricular contractile force, anesthetized ferrets); settings: Mustela putorius, intraduodenal, read-out: Inotropic Activity In Vivo - Ferret % Change RVCF
# Protocol: This test is carried out in ferrets as follows.
# Fasted anesthetized ferrets are instrumented to study hemodynamic parameters as well as right ventricular contractile force using a Walton-Brodie open strain guage arch. Drugs are administered intraduodenally as solutions in DMSO (1 mL or less) and effects on myocardial contractile force and other parameters are monitored for 60 minutes after dosing. Changes in contractile force in response to drug treatment are expressed in terms of percent change from predose control.
# [3] = system: ADP-induced platelet aggregation; experiment: In vitro inhibition of ADP-induced platelet aggregation (aggregometer, rabbit PRP); assay type: cell-based; settings: Oryctolagus cuniculus, read-out: Platelet Inhibition In Vitro - Rabbit PRP EC50 vs. ADP
# Protocol: as §1
# [4] = biological target: T1, cAMP phosphodiesterase (PDE) obtained from human platelets (Homo sapiens, UniProt Q14432); experiment: Inhibition of cyclic AMP phosphodiesterase; assay type: biochemical
# T1 construct: obtained from human platelets; from tissue; host or cells: human platelets
# T1 sequence (Q14432 whole entry): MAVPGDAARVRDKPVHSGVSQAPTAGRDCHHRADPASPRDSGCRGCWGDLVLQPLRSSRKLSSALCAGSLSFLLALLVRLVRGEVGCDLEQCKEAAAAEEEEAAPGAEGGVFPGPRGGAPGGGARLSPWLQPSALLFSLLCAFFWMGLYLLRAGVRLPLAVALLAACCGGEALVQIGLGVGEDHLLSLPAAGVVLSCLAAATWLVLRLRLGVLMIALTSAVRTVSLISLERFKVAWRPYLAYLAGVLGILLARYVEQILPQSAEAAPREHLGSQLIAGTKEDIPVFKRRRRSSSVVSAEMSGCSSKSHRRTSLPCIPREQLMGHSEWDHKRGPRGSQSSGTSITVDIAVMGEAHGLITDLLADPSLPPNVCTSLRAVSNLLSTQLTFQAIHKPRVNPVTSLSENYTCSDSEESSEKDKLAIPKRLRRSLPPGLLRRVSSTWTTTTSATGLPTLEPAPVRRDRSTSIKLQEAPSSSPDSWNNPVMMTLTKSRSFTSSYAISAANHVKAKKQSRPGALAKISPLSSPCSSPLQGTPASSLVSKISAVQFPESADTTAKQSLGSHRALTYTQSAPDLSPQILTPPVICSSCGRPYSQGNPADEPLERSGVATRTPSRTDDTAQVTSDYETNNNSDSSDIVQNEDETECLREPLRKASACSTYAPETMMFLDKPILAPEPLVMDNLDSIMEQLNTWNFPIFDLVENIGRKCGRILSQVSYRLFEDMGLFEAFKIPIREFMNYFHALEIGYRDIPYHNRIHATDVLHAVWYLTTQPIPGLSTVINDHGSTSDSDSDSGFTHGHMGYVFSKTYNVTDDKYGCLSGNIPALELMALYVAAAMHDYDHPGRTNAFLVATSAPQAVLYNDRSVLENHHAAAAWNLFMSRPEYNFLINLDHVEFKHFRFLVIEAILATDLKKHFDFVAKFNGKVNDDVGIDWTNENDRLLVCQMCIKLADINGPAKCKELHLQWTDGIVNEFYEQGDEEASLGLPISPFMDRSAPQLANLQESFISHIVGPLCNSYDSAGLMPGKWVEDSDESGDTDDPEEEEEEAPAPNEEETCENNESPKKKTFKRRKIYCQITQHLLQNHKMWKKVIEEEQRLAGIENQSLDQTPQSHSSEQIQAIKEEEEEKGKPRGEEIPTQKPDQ
# Protocol: This assay is carried out essentially as described by Thompson, et al., Methods in Enzymology, 38, 205-212 (1974). Briefly, tritium labeled cyclic adenosine monophosphate (cAMP) is incubated with a phosphodiesterase (PDE) enzynme obtained from human platelets which converts a portion of the cAMP to 5'AMP in culture tubes. This reaction is terminated by submerging the tubes in a boiling water bath after which they are placed on ice and an aliquot of snake venom is added to each tube. This, during a second incubation, converts the 5'AMP to adenosine. Ion exchange resin is added to bind the remaining cyclic AMP. The tubes are centrifuged to sediment the resin and a portion of the clear supernatent (which contains radioactive adenosine) is counted in a liquid scintillation counter. The cAMP phosphodiesterase inhibition activity of a test agent is determined by pre-incubating the PDE enzyme preparation with the test agent.
# [5] = system: platelet aggregation vs. ADP; experiment: Inhibition of platelet aggregation following oral administration (Ex vivo); assay type: in vivo; settings: Rattus norvegicus, rats, 2 hours after dosing
# Protocol: This test is sometimes referred to in the art as an Ex vivo method and was initially described by Fleming, et al., Arch. Int. Pharmacodyn. Ther., 199, 164 (1972). Briefly, the assay is essentially carried out as follows. Aggregometry is performed in vitro as previously described on platelet rich plasma samples obtained from rats dosed with either test compounds or the vehicle. In all cases, activity is determined 2 hours after the drug is administered orally at various doses by gavage as a suspension in […] plus a few drops of Tween 20.
# [6] = 3 mg/kg, i.d., mean ± standard error when n more than 1
Structure (SMILES),EC50 [1],"change in vivo at 3 mg/kg [2, 6]",EC50 [3],IC50 [4],"change in vivo at 0.3 mg/kg ([2]; 0.3 mg/kg, i.d.)",ED50 [5],change in vivo at 3 mg/kg [2]
"COc1ccc2nc3[nH]c(=O)[nH]c3cc2c1 [Example 12, 7-Methoxy-1,3-dihydro-2H-imidazo[4,5-b]quinolin-2-one]",0.02 µg/mL,11 ± 4%,,,,,
"Cc1cccc2c1CC1NC(=O)NC1=N2 (centres unmarked) [Example 20-3, 8-methyl-1,3,9,9a-tetrahydro-2H-imidazo[4,5-b]quinolin-2-one]",0.03 µg/mL,15 ± 4%,0.05 µg/mL,100 nM,30 ± 5%,,
"O=c1[nH]c2cc3cc(Br)ccc3nc2[nH]1 [Example 22, 7-Bromo-1,3-dihydro-2H-imidazo[4,5-b]quinolin-2-one]",0.2 µg/mL,,0.3 µg/mL,100 nM,,,
"O=c1[nH]c2cc3ccc(C(F)(F)F)cc3nc2[nH]1 [Example 25, 1,3-Dihydro-6-(trifluoromethyl)-2H-imidazo[4,5-b]quinolin-2-one]",0.7 µg/mL,,0.4 µg/mL,300 nM,,> 10 mg/kg,
"Cc1ccc2c(c1C)CC1NC(=O)NC1=N2 (centres unmarked) [Example 35, 7,8-Dimethyl-1,3,9,9a-tetrahydro-2H-imidazo-[4,5-b]quinolin-2-one]",0.04 µg/mL,,0.1 µg/mL,30 nM,,> 10 mg/kg,
"Cc1cccc2c1CC1C(=N2)NC(=O)N1C (centres unmarked) [Example 36, 1,3,9,9a-Tetrahydro-1,8-dimethyl-2H-imidazo[4,5-b]quinolin-2-one]",12 µg/mL,,20 µg/mL,,,,
"OCCN(CCO)c1nc(N2CCCCC2)c2nc(N(CCO)CCO)nc(N3CCCCC3)c2n1 [dipyridamole, reference compound]",,,> 512 µg/mL,,,> 100 mg/kg,
"Cc1[nH]c(=O)c(C#N)cc1-c1ccncc1 [milrinone, reference compound]",,,,,,,52%
